According to patent US9738902B2, “Modified PYR/PYL receptors activated by ligands” (priority 2013, dated 2017):

How the values were obtained:
[1] = biological target: T1, PYR1 K59R F108A S122G (Arabidopsis thaliana, UniProt O49686, F108A/K59R/S122G); assay: Y2H Combinatorial Mutagenesis Screen I (HAB1, X-gal); assay type: cell-based
T1 construct: expressed in transfected cells; host or cells: S. cerevisiae Y190 two-hybrid reporter strain
Text: This screening approach yielded mutants at ligand contacting residues that alter sensitivity to specific ligands. We reasoned that receptor sensitivity could be improved by systematically constructing combinations of the best mutant variants identified in the first round of screening. To test this, we constructed mutant combinations using the strongest mutations identified for mandipropamid, benzothiadiazole, benoxacor or fludioxonil sensitivity. The mutations selected for combinatorial mutagenesis are listed in bold type in Table 1; The mutant combinations were constructed using the QuickChange Lightning Multi Site-Directed PCR Mutagenesis kit (Agilent, USA) using pBD-PYR1^K59R template DNA and mutagenic primers, essentially as previously described (Mosquna et al., 2011). The mutant combinations were sequence validated, introduced into the pACT-HAB1 Y190 reporter strain and then tested for responsiveness to a range of compound concentrations (100, 50, 25, 10, 1, 0.2, 0.1 or 0 μM each test compound). These efforts yielded double mutant receptor variants with improved sensitivity for the 4 compound/receptor pairs examined (see entries labeled “Combinatorial Mutagenesis Screen I” in Table 1).
The preceding efforts identified PYR1^K59R,F108A,S122G, which is responsive to mandipropamid concentrations as low as 1 μM. […]

[2] = biological target: T2, PYR1 K59R F108A S122G F159V (Arabidopsis thaliana, UniProt O49686, F108A/F159V/K59R/S122G); assay: Y2H NNK Mutagenesis (HAB1, X-gal); assay type: cell-based
T2 construct: expressed in transfected cells; host or cells: S. cerevisiae Y190 pACT-HAB1
Protocol: (§1) The preceding efforts identified PYR1^K59R,F108A,S122G, which is responsive to mandipropamid concentrations as low as 1 μM. We next attempted to improve the mandipropamid receptor by screening for additional pocket-located mutations that improve compound responsiveness. We subjected PYR1^K59R,F108A,S122G to two separate mutagenesis experiments. We first examined the effects of adding single additional mutations at each of the other 23 ligand-contacting residues that are not altered in the PYR1^K59R,F108A,S122G backbone, using NNK codon-randomization primers. Each NNK primer was used to generate a pool of PYR1^K59R,F108A,S122G receptors containing additional mutations at a single ligand-contacting residue. DNA for this mutant pool was prepared and then transformed into a pACT-HAB1 MAV99 reporter strain, which allows URA3 based selection of active receptors (Peterson et al., 2010). The pooled yeast cells were plated on media containing 0.5 μM mandipropamid, a concentration too low to allow growth of a control MAV99 pACT-HAB1 reporter strain expressing pBD-PYR1^K59R,F108A,S122G. […] Mutants enabling ligand-dependent interactions were sequenced and plasmid DNA for these mutants was isolated and introduced into Y190 pACT-HAB1 so that X-gal staining could be utilized to evaluate receptor sensitivity. This process was repeated for each of the remaining 22 NNK primers. These efforts yielded 10 mutations (V81C, V81I, V81T, V83L, L87A, F159L, F159M, F159V, A160V, V164I) that enhance the mandipropamid sensitivity of PYR1^K59R,F108A,S122G (see entries labeled “NNK Mutagenesis Screen” in Table 1).

[3] = biological target: T3, PYR1 K59R F108A S122G F159L (Arabidopsis thaliana, UniProt O49686, F108A/F159L/K59R/S122G); assay: Y2H NNK Mutagenesis (HAB1, X-gal); assay type: cell-based
T3 construct: expressed in transfected cells; host or cells: S. cerevisiae Y190 pACT-HAB1
Protocol: as §1

[4] = biological target: T4, PYR1 K59R F108A S122G V81T (Arabidopsis thaliana, UniProt O49686, F108A/K59R/S122G/V81T); assay: Y2H NNK Mutagenesis (HAB1, X-gal); assay type: cell-based
T4 construct: expressed in transfected cells; host or cells: S. cerevisiae Y190 pACT-HAB1
Protocol: as §1

[5] = biological target: T5, PYR1 K59R F108A S122G V81C (Arabidopsis thaliana, UniProt O49686, F108A/K59R/S122G/V81C); assay: Y2H NNK Mutagenesis (HAB1, X-gal); assay type: cell-based
T5 construct: expressed in transfected cells; host or cells: S. cerevisiae Y190 pACT-HAB1
Protocol: as §1

[6] = biological target: T6, PYR1 K59R F108A S122G A160V (Arabidopsis thaliana, UniProt O49686, A160V/F108A/K59R/S122G); assay: Y2H NNK Mutagenesis (HAB1, X-gal); assay type: cell-based
T6 construct: expressed in transfected cells; host or cells: S. cerevisiae Y190 pACT-HAB1
Protocol: as §1

[7] = biological target: T7, PYR1 K59R F108A S122G V81I (Arabidopsis thaliana, UniProt O49686, F108A/K59R/S122G/V81I); assay: Y2H NNK Mutagenesis (HAB1, X-gal); assay type: cell-based
T7 construct: expressed in transfected cells; host or cells: S. cerevisiae Y190 pACT-HAB1
Protocol: as §1

[8] = biological target: T8, PYR1 K59R F108A S122G F159M (Arabidopsis thaliana, UniProt O49686, F108A/F159M/K59R/S122G); assay: Y2H NNK Mutagenesis (HAB1, X-gal); assay type: cell-based
T8 construct: expressed in transfected cells; host or cells: S. cerevisiae Y190 pACT-HAB1
Protocol: as §1

[9] = biological target: T9, PYR1 K59R F108A S122G L87A (Arabidopsis thaliana, UniProt O49686, F108A/K59R/L87A/S122G); assay: Y2H NNK Mutagenesis (HAB1, X-gal); assay type: cell-based
T9 construct: expressed in transfected cells; host or cells: S. cerevisiae Y190 pACT-HAB1
Protocol: as §1

[10] = biological target: T10, PYR1 K59R F108A S122G V83L (Arabidopsis thaliana, UniProt O49686, F108A/K59R/S122G/V83L); assay: Y2H NNK Mutagenesis (HAB1, X-gal); assay type: cell-based
T10 construct: expressed in transfected cells; host or cells: S. cerevisiae Y190 pACT-HAB1
Protocol: as §1

[11] = biological target: T11, PYR1 K59R F108A S122G V164I (Arabidopsis thaliana, UniProt O49686, F108A/K59R/S122G/V164I); assay: Y2H NNK Mutagenesis (HAB1, X-gal); assay type: cell-based
T11 construct: expressed in transfected cells; host or cells: S. cerevisiae Y190 pACT-HAB1
Protocol: as §1

[12] = test system: 35S::PYR1^MANDI lines MDP1, MDP2, MDP3; assay: seed germination assay, 250 nM mandipropamid; assay type: in vivo, Arabidopsis; settings: 3 days post-stratification
Text: To further characterize the physiological effects of the PYR1^MANDI/mandipropamid interaction, we characterized three independently generated transgenic Arabidopsis lines in more detail. These lines, initially named E9, E16 and E31 are henceforth referred to as MPD1, MPD2 and MPD3. Each of these lines is homozygous for a single 35S::PYR1^MANDI insertion site and is the result of independent transformation events. We first used germination assays to characterize the relative mandipropamid sensitivity of these lines. Seeds for the transgenics and wild type control were surface sterilized with bleach and then stratified for 4 days at 4° C. on 0.7% agar petri plates containing ½ MS salts and 0.5% sucrose in addition to either 250 nM mandipropamid or a mock treatment of 0.1% DMSO (the carrier solvent). After stratification, the plates were transferred to a growth chamber operating on a 16-hour day length cycle. Seed germination was scored 3 days post-stratification. […] To more definitively assess the relative sensitivity of the MDP1 and MDP2 lines to mandipropamid, we conducted germination dose-response experiments (using the same procedure described above) and confirmed that the MDP1 line is more sensitive to mandipropamid than MDP2 (FIG. 7B).

T9 sequence (O49686 whole entry K59R/L87A/F108A/S122G): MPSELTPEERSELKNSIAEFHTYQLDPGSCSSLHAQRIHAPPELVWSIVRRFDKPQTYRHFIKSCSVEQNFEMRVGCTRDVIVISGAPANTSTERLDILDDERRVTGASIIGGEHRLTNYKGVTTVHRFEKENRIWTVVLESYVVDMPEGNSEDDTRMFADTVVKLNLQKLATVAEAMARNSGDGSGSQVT
T9 sequence (Q9CAJ0 23-511 partner): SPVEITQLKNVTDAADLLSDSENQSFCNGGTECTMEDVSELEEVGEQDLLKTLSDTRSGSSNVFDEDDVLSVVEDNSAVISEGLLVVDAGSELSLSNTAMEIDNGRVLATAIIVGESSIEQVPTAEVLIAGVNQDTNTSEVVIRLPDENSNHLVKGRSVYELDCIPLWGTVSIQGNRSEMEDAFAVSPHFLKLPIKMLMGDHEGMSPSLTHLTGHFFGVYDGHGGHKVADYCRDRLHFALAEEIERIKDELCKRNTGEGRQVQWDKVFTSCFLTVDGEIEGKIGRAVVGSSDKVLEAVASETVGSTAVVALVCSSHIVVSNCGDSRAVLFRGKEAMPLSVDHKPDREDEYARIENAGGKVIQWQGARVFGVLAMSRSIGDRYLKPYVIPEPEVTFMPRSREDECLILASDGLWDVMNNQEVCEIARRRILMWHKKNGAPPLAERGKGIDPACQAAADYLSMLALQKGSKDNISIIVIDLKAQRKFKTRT
T5 sequence (O49686 whole entry K59R/V81C/F108A/S122G): as the sequence (O49686 whole entry K59R/L87A/F108A/S122G) above, with V81C, A87L counted along it
T5 sequence (Q9CAJ0 23-511 partner): as the sequence (Q9CAJ0 23-511 partner) above
T6 sequence (O49686 whole entry K59R/F108A/S122G/A160V): as the sequence (O49686 whole entry K59R/L87A/F108A/S122G) above, with A87L, A160V counted along it
T6 sequence (Q9CAJ0 23-511 partner): as the sequence (Q9CAJ0 23-511 partner) above
T3 sequence (O49686 whole entry K59R/F108A/S122G/F159L): as the sequence (O49686 whole entry K59R/L87A/F108A/S122G) above, with A87L, F159L counted along it
T3 sequence (Q9CAJ0 23-511 partner): as the sequence (Q9CAJ0 23-511 partner) above
T7 sequence (O49686 whole entry K59R/V81I/F108A/S122G): as the sequence (O49686 whole entry K59R/L87A/F108A/S122G) above, with V81I, A87L counted along it
T7 sequence (Q9CAJ0 23-511 partner): as the sequence (Q9CAJ0 23-511 partner) above
T2 sequence (O49686 whole entry K59R/F108A/S122G/F159V): as the sequence (O49686 whole entry K59R/L87A/F108A/S122G) above, with A87L, F159V counted along it
T2 sequence (Q9CAJ0 23-511 partner): as the sequence (Q9CAJ0 23-511 partner) above
T10 sequence (O49686 whole entry K59R/V83L/F108A/S122G): as the sequence (O49686 whole entry K59R/L87A/F108A/S122G) above, with V83L, A87L counted along it
T10 sequence (Q9CAJ0 23-511 partner): as the sequence (Q9CAJ0 23-511 partner) above
T11 sequence (O49686 whole entry K59R/F108A/S122G/V164I): as the sequence (O49686 whole entry K59R/L87A/F108A/S122G) above, with A87L, V164I counted along it
T11 sequence (Q9CAJ0 23-511 partner): as the sequence (Q9CAJ0 23-511 partner) above
T1 sequence (Q9CAJ0 23-511): as the sequence (Q9CAJ0 23-511 partner) above
T1 sequence (O49686 whole entry K59R/F108A/S122G): as the sequence (O49686 whole entry K59R/L87A/F108A/S122G) above, with A87L counted along it
T4 sequence (O49686 whole entry K59R/V81T/F108A/S122G): as the sequence (O49686 whole entry K59R/L87A/F108A/S122G) above, with V81T, A87L counted along it
T4 sequence (Q9CAJ0 23-511 partner): as the sequence (Q9CAJ0 23-511 partner) above
T8 sequence (O49686 whole entry K59R/F108A/S122G/F159M): as the sequence (O49686 whole entry K59R/L87A/F108A/S122G) above, with A87L, F159M counted along it
T8 sequence (Q9CAJ0 23-511 partner): as the sequence (Q9CAJ0 23-511 partner) above

C#CCOc1ccc(CCNC(=O)C(OCC#C)c2ccc(Cl)cc2)cc1OC (stereo not shown) [Mandipropamid, mandipropamid]
Threshold [1]: 1 µM | Threshold [2]: 0.25 µM | Threshold [3]: 0.05 µM | Threshold [4]: 0.25 µM | Threshold [5]: 0.25 µM | Threshold [6]: 0.25 µM | Threshold [7]: 0.25 µM | Threshold [8]: 0.25 µM | Threshold [9]: 0.25 µM | Threshold [10]: 0.05 µM | Threshold [11]: 0.25 µM | seed germination ([12]; MDP1 seed, 250 nM mandipropamid): near complete germination inhibition | seed germination ([12]; MDP3, 250 nM mandipropamid): minimal sensitivity
